These are literature values, as cited in US20100249042A1, “COMPOSITIONS AND METHODS FOR TREATMENT OF EYELASHES AND EYEBROWS” (ProCyte Corporation, priority 2009, published 2010).

One series relates to human hair follicles. Particulars: ex vivo; Pyo et al. 2007.
Series [1] relates to Dermal papilla cells (DPCs). To be noted: in vitro; Pyo et al. 2007.

As for “L-alanyl-L-histidyl-L-lysine:copper(II) [AHK-Cu]”, the “elongation of human hair follicles” value with human hair follicles was “stimulated”. Further, in series [1], the “proliferation of DPCs” value is on record as “stimulated”.
